Paper PMC5218480 (PLoS ONE, 2017)

Tested on: MV-4-11 cells
Assay: Gene expression microarray analysis (Affymetrix PrimeView) and GSEA
Assay type: cell-based, human
Set-up: RFU PODN (11730768_x_at) / Fold change /veh PODN (11730768_x_at) / RFU LINC00158 (11744669_a_at) / Fold change /veh LINC00158 (11744669_a_at) / RFU DUSP10 (11751237_a_at) / Fold change /veh DUSP10 (11751237_a_at) / RFU ID3 (11757404_x_at) / Fold change /veh ID3 (11757404_x_at) / RFU PLEKHG5 (11737974_s_at) / Fold change /veh PLEKHG5 (11737974_s_at) / RFU LRRC4B (11730491_at) / Fold change /veh LRRC4B (11730491_at) / RFU GIMAP4 (11747438_a_at) / Fold change /veh GIMAP4 (11747438_a_at) / RFU KRT8 (11758183_x_at) / Fold change /veh KRT8 (11758183_x_at) / RFU CNN1 (11734310_a_at) / Fold change /veh CNN1 (11734310_a_at) / RFU VPS37D (11726825_at) / Fold change /veh VPS37D (11726825_at) / RFU C10orf10 (11716522_x_at) / Fold change /veh C10orf10 (11716522_x_at) / RFU KIR2DL2 /// KIR2DL4 /// KIR2DL5A /// KIR2DL5B /// KIR2DS1 /// KIR2DS2 /// KIR2DS3 /// KIR2DS4 /// KIR3DL3 /// KIR3DL3 /// KIR3DS1 (11738374_at) / Fold change /veh KIR2DL2 /// KIR2DL4 /// KIR2DL5A /// KIR2DL5B /// KIR2DS1 /// KIR2DS2 /// KIR2DS3 /// KIR2DS4 /// KIR3DL3 /// KIR3DL3 /// KIR3DS1 (11738374_at) / RFU C1QL1 (11718748_at) / Fold change /veh C1QL1 (11718748_at) / RFU TMPRSS4 (11747572_a_at) / Fold change /veh TMPRSS4 (11747572_a_at) / RFU HAMP (11756126_x_at) / Fold change /veh HAMP (11756126_x_at) / RFU RNFT2 (11725882_a_at) / Fold change /veh RNFT2 (11725882_a_at) / RFU NR4A2 (11747474_a_at) / Fold change /veh NR4A2 (11747474_a_at) / RFU ABCC12 (11746883_a_at) / Fold change /veh ABCC12 (11746883_a_at) / RFU TMEM136 (11760407_x_at) / Fold change /veh TMEM136 (11760407_x_at) / RFU CLDN22 /// WWC2 (11732394_at) / Fold change /veh CLDN22 /// WWC2 (11732394_at) / RFU HLA-DPB1 (11760878_x_at) / Fold change /veh HLA-DPB1 (11760878_x_at) / RFU SPINT1 (11716480_a_at) / Fold change /veh SPINT1 (11716480_a_at) / RFU GAP43 (11754022_s_at) / Fold change /veh GAP43 (11754022_s_at) / RFU A4GNT (11735810_at) / Fold change /veh A4GNT (11735810_at) / RFU PRB3 (11715151_x_at) / Fold change /veh PRB3 (11715151_x_at) / RFU TUBB4B (11761932_at) / Fold change /veh TUBB4B (11761932_at) / RFU CAPN14 (11732068_a_at) / Fold change /veh CAPN14 (11732068_a_at) / RFU TMCC2 (11721928_a_at) / Fold change /veh TMCC2 (11721928_a_at) / RFU IRGQ (11745062_a_at) / Fold change /veh IRGQ (11745062_a_at) / RFU FAM174B (11720279_a_at) / Fold change /veh FAM174B (11720279_a_at) / RFU TMPRSS4 (11748680_a_at) / Fold change /veh TMPRSS4 (11748680_a_at) / RFU FAM212B (11763350_a_at) / Fold change /veh FAM212B (11763350_a_at) / RFU PLEKHG5 (11743358_a_at) / Fold change /veh PLEKHG5 (11743358_a_at) / RFU ZSCAN30 (11745921_a_at) / Fold change /veh ZSCAN30 (11745921_a_at) / RFU CMKLR1 (11741424_a_at) / Fold change /veh CMKLR1 (11741424_a_at) / RFU LOC101060620 /// MAPK8IP1 (11723275_at) / Fold change /veh LOC101060620 /// MAPK8IP1 (11723275_at) / RFU SPTSSB (11747773_x_at) / Fold change /veh SPTSSB (11747773_x_at) / RFU PRSS12 (11739890_at) / Fold change /veh PRSS12 (11739890_at) / RFU BIN1 (11741810_x_at) / Fold change /veh BIN1 (11741810_x_at) / RFU WNT11 (11732464_a_at) / Fold change /veh WNT11 (11732464_a_at) / RFU C10orf10 (11716521_a_at) / Fold change /veh C10orf10 (11716521_a_at) / RFU C5orf56 (11738089_at) / Fold change /veh C5orf56 (11738089_at) / RFU CYB561 (11721691_x_at) / Fold change /veh CYB561 (11721691_x_at) / RFU ANKRD19P (11752326_a_at) / Fold change /veh ANKRD19P (11752326_a_at) / RFU OR2T12 /// OR2T33 /// OR2T8 (11738714_s_at) / Fold change /veh OR2T12 /// OR2T33 /// OR2T8 (11738714_s_at) / RFU VCAN (11748164_a_at) / Fold change /veh VCAN (11748164_a_at) / RFU JSRP1 (11732532_at) / Fold change /veh JSRP1 (11732532_at) / RFU KRTAP10-11 (11738290_x_at) / Fold change /veh KRTAP10-11 (11738290_x_at) / RFU MYO3A (11730013_a_at) / Fold change /veh MYO3A (11730013_a_at) / RFU EBF3 (11725865_a_at) / Fold change /veh EBF3 (11725865_a_at) / RFU CAMK2N1 (11719241_x_at) / Fold change /veh CAMK2N1 (11719241_x_at) / RFU C5orf56 (11738088_a_at) / Fold change /veh C5orf56 (11738088_a_at) / RFU OLFML3 (11715873_a_at) / Fold change /veh OLFML3 (11715873_a_at) / RFU LOC100653217 /// NTM (11731650_a_at) / Fold change /veh LOC100653217 /// NTM (11731650_a_at) / RFU MAPK11 (11762145_a_at) / Fold change /veh MAPK11 (11762145_a_at) / RFU FIZ1 (11724087_x_at) / Fold change /veh FIZ1 (11724087_x_at) / RFU OASL (11726364_x_at) / Fold change /veh OASL (11726364_x_at) / RFU SOX15 (11748057_x_at) / Fold change /veh SOX15 (11748057_x_at) / RFU CD79A (11719716_a_at) / Fold change /veh CD79A (11719716_a_at) / RFU HIST1H1D (11736915_at) / Fold change /veh HIST1H1D (11736915_at) / RFU CASKIN2 (11723855_a_at) / Fold change /veh CASKIN2 (11723855_a_at) / RFU LOC730098 (11760151_x_at) / Fold change /veh LOC730098 (11760151_x_at) / RFU OR4N2 (11742367_at) / Fold change /veh OR4N2 (11742367_at) / RFU PRRT2 (11749266_a_at) / Fold change /veh PRRT2 (11749266_a_at) / RFU SNX32 (11753110_a_at) / Fold change /veh SNX32 (11753110_a_at) / RFU CDHR5 (11726645_a_at) / Fold change /veh CDHR5 (11726645_a_at) / RFU RCAN1 (11760418_a_at) / Fold change /veh RCAN1 (11760418_a_at) / RFU FAM167A (11723789_a_at) / Fold change /veh FAM167A (11723789_a_at) / RFU FAM26E (11764081_at) / Fold change /veh FAM26E (11764081_at) / RFU ISYNA1 (11749810_s_at) / Fold change /veh ISYNA1 (11749810_s_at) / RFU ACY1 (11761880_at) / Fold change /veh ACY1 (11761880_at) / RFU 11764098_at / Fold change /veh 11764098_at / RFU SAMD14 (11745864_x_at) / Fold change /veh SAMD14 (11745864_x_at) / RFU NPB (11741838_a_at) / Fold change /veh NPB (11741838_a_at) / RFU TMPRSS6 (11731388_a_at) / Fold change /veh TMPRSS6 (11731388_a_at) / RFU KRTAP10-2 (11738614_at) / Fold change /veh KRTAP10-2 (11738614_at) / RFU ARHGAP8 /// PRR5-ARHGAP8 (11727945_x_at) / Fold change /veh ARHGAP8 /// PRR5-ARHGAP8 (11727945_x_at) / RFU KRTAP5-7 /// NADSYN1 (11734609_at) / Fold change /veh KRTAP5-7 /// NADSYN1 (11734609_at) / RFU RASL12 (11751679_a_at) / Fold change /veh RASL12 (11751679_a_at) / RFU CDKN2B (11736163_a_at) / Fold change /veh CDKN2B (11736163_a_at) / RFU PRF1 (11729649_at) / Fold change /veh PRF1 (11729649_at) / RFU, ZNF638 /// ZNF638-IT1 / Fold change vs veh, ZNF638 /// ZNF638-IT1 / RFU, PANK3 / Fold change vs veh, PANK3 / RFU, SH3YL1 / Fold change vs veh, SH3YL1 / RFU, ZEB2 / Fold change vs veh, ZEB2 / RFU, NRIP1 / Fold change vs veh, NRIP1 / RFU, PTTG1IP / Fold change vs veh, PTTG1IP / RFU, CAPN2 / Fold change vs veh, CAPN2 / RFU, MED14 / Fold change vs veh, MED14 / RFU, SNORA58 / Fold change vs veh, SNORA58 / RFU, C1orf63 / Fold change vs veh, C1orf63 / RFU, LRRFIP1 / Fold change vs veh, LRRFIP1 / RFU, NDUFAF7 / Fold change vs veh, NDUFAF7 / RFU, SLC12A2 / Fold change vs veh, SLC12A2 / RFU, IBTK / Fold change vs veh, IBTK / RFU, ESF1 / Fold change vs veh, ESF1 / Fold change vs veh, TMEM50B / RFU, TAOK1 / Fold change vs veh, TAOK1 / RFU, ACBD3 / Fold change vs veh, ACBD3 / RFU, TMA16 / Fold change vs veh, TMA16 / RFU, RWDD3 / Fold change vs veh, RWDD3 / RFU, BCAT1 / Fold change vs veh, BCAT1 / RFU, EDEM3 / Fold change vs veh, EDEM3 / RFU, TMEM33 / Fold change vs veh, TMEM33 / RFU, WDR75 / Fold change vs veh, WDR75 / RFU, AHCTF1 / Fold change vs veh, AHCTF1 / RFU, TFRC / Fold change vs veh, TFRC / RFU, ZDHHC17 / Fold change vs veh, ZDHHC17 / RFU, NOM1 / Fold change vs veh, NOM1 / RFU, ARL8B / Fold change vs veh, ARL8B / RFU, ZBTB11 / Fold change vs veh, ZBTB11 / RFU, TAMM41 / Fold change vs veh, TAMM41 / RFU, KIAA1704 /// LOC100996395 / Fold change vs veh, KIAA1704 /// LOC100996395 / RFU, ING1 / Fold change vs veh, ING1 / RFU, TRMT61B / Fold change vs veh, TRMT61B / RFU, FUBP3 / Fold change vs veh, FUBP3 / RFU, TP53 / Fold change vs veh, TP53 / RFU, TNKS2 / Fold change vs veh, TNKS2 / RFU, ZFP14 / Fold change vs veh, ZFP14 / RFU, ACTR2 / Fold change vs veh, ACTR2 / RFU, PPP3R1 / Fold change vs veh, PPP3R1 / RFU, PIK3R1 / Fold change vs veh, PIK3R1 / RFU, HNRNPA1 / Fold change vs veh, HNRNPA1 / RFU, RNF170 / Fold change vs veh, RNF170 / RFU, ZNF28 / Fold change vs veh, ZNF28 / RFU, RNGTT / Fold change vs veh, RNGTT / RFU, OGT / Fold change vs veh, OGT / RFU, BRD1 / Fold change vs veh, BRD1 / RFU, MARS / Fold change vs veh, MARS / RFU, ZNF655 / Fold change vs veh, ZNF655 / RFU, FAHD1 / Fold change vs veh, FAHD1 / RFU, BDP1 / Fold change vs veh, BDP1 / RFU, LRRCC1 / Fold change vs veh, LRRCC1 / RFU, ARID1A / Fold change vs veh, ARID1A / RFU, ZNF146 / Fold change vs veh, ZNF146 / RFU, ZNF330 / Fold change vs veh, ZNF330 / RFU, GPN3 / Fold change vs veh, GPN3 / RFU, C9orf123 / Fold change vs veh, C9orf123 / RFU, N4BP2L2 / Fold change vs veh, N4BP2L2 / RFU, ARFIP1 / Fold change vs veh, ARFIP1 / RFU, FAM179B / Fold change vs veh, FAM179B / RFU, BCL10 / Fold change vs veh, BCL10 / RFU, UHRF1BP1L / Fold change vs veh, UHRF1BP1L / RFU, BET1 / Fold change vs veh, BET1 / RFU, CNOT2 / Fold change vs veh, CNOT2 / RFU, ZNF268 / Fold change vs veh, ZNF268 / Fold change vs veh, ZNF507 / RFU, DGCR2 / Fold change vs veh, DGCR2 / RFU, WDSUB1 / Fold change vs veh, WDSUB1 / Fold change vs veh, HSP90B1 /// MIR3652 / RFU, ADSS / Fold change vs veh, ADSS / RFU, GK / Fold change vs veh, GK / RFU, ZNF148 / Fold change vs veh, ZNF148 / RFU, TAF9 / Fold change vs veh, TAF9 / RFU, SLC1A5 / Fold change vs veh, SLC1A5 / RFU, SLMO2 / Fold change vs veh, SLMO2 / RFU, ABCC4 / Fold change vs veh, ABCC4 / RFU, LOC101060439 /// RAP1B / Fold change vs veh, LOC101060439 /// RAP1B / RFU, RFX7 / Fold change vs veh, RFX7 / RFU, GTPBP10 / Fold change vs veh, GTPBP10 / RFU, CNEP1R1 / Fold change vs veh, CNEP1R1 / RFU, BIVM-ERCC5 /// ERCC5 / Fold change vs veh, BIVM-ERCC5 /// ERCC5 / RFU, ILF3 / Fold change vs veh, ILF3 / RFU 11762660_at / Fold change /veh 11762660_at / RFU VCAN (11757783_s_at) / Fold change /veh VCAN (11757783_s_at) / RFU DDX43 (11728927_at) / Fold change /veh DDX43 (11728927_at) / RFU KRT8 (11758188_x_at) / Fold change /veh KRT8 (11758188_x_at) / RFU NKD1 (11759106_at) / Fold change /veh NKD1 (11759106_at) / RFU SRD5A1 (11742802_a_at) / Fold change /veh SRD5A1 (11742802_a_at) / RFU TPSAB1 /// TPSB2 (11721975_s_at) / Fold change /veh TPSAB1 /// TPSB2 (11721975_s_at) / RFU GSTM3 (11746129_a_at) / Fold change /veh GSTM3 (11746129_a_at) / RFU IL23R (11737362_x_at) / Fold change /veh IL23R (11737362_x_at) / RFU TMEM51 (11727254_a_at) / Fold change /veh TMEM51 (11727254_a_at) / RFU PIWIL2 (11732686_x_at) / Fold change /veh PIWIL2 (11732686_x_at) / RFU ORM1 (11744905_x_at) / Fold change /veh ORM1 (11744905_x_at) / RFU CCDC152 (11743942_at) / Fold change /veh CCDC152 (11743942_at) / RFU ECM1 (11717891_a_at) / Fold change /veh ECM1 (11717891_a_at) / RFU IL23R (11748794_a_at) / Fold change /veh IL23R (11748794_a_at) / RFU TNFAIP8L3 (11732012_x_at) / Fold change /veh TNFAIP8L3 (11732012_x_at) / RFU MBOAT4 (11741988_at) / Fold change /veh MBOAT4 (11741988_at) / RFU 11764193_at / Fold change /veh 11764193_at / RFU TMEM53 (11763286_at) / Fold change /veh TMEM53 (11763286_at) / RFU MAGEB2 (11727129_at) / Fold change /veh MAGEB2 (11727129_at) / RFU TMEM200A (11744735_a_at) / Fold change /veh TMEM200A (11744735_a_at) / RFU CCDC152 (11751479_a_at) / Fold change /veh CCDC152 (11751479_a_at) / RFU FAM211A (11726209_a_at) / Fold change /veh FAM211A (11726209_a_at) / RFU RGS16 (11746705_a_at) / Fold change /veh RGS16 (11746705_a_at) / RFU VCAN (11755009_s_at) / Fold change /veh VCAN (11755009_s_at) / RFU RHOB (11743442_s_at) / Fold change /veh RHOB (11743442_s_at) / RFU RGS16 (11720943_a_at) / Fold change /veh RGS16 (11720943_a_at) / RFU RGS16 (11720944_at) / Fold change /veh RGS16 (11720944_at) / RFU, VPS4B / Fold change vs veh, VPS4B / RFU, CREB1 / Fold change vs veh, CREB1 / RFU, DNAJC13 / Fold change vs veh, DNAJC13 / RFU, GNAQ / Fold change vs veh, GNAQ / RFU, CDK5R1 / Fold change vs veh, CDK5R1 / RFU, ZRANB3 / Fold change vs veh, ZRANB3 / RFU, CUL4A / Fold change vs veh, CUL4A / RFU, CCNY / Fold change vs veh, CCNY / RFU, UFL1 / Fold change vs veh, UFL1 / RFU, COG3 / Fold change vs veh, COG3 / RFU, DIAPH2 / Fold change vs veh, DIAPH2 / RFU, SKA2 / Fold change vs veh, SKA2 / RFU, AFF3 / Fold change vs veh, AFF3 / RFU, LMF1 / Fold change vs veh, LMF1 / RFU, IPO11 / Fold change vs veh, IPO11 / RFU, DFFB / Fold change vs veh, DFFB / RFU, FOXP1 / Fold change vs veh, FOXP1 / RFU, CARD8 / Fold change vs veh, CARD8 / RFU, STRN3 / Fold change vs veh, STRN3 / RFU, ADK / Fold change vs veh, ADK / RFU, RASSF2 / Fold change vs veh, RASSF2 / RFU, WIPF1 / Fold change vs veh, WIPF1 / RFU, LARP1B / Fold change vs veh, LARP1B / RFU, RASA1 / Fold change vs veh, RASA1 / RFU, RB1 / Fold change vs veh, RB1 / RFU, PPFIA1 / Fold change vs veh, PPFIA1 / RFU, MAT2A / Fold change vs veh, MAT2A / RFU, CCT5 / Fold change vs veh, CCT5 / RFU, WDR92 / Fold change vs veh, WDR92 / RFU, CUX1 / Fold change vs veh, CUX1 / RFU, TTC7A / Fold change vs veh, TTC7A / RFU, TMEM135 / Fold change vs veh, TMEM135 / RFU, DEPTOR / Fold change vs veh, DEPTOR / RFU, CPM / Fold change vs veh, CPM / RFU, DNAJB6 / Fold change vs veh, DNAJB6 / RFU, CACNA2D3 / Fold change vs veh, CACNA2D3 / RFU, DTX4 / Fold change vs veh, DTX4 / RFU, TFCP2 / Fold change vs veh, TFCP2 / RFU, GMCL1 /// GMCL1P1 / Fold change vs veh, GMCL1 /// GMCL1P1 / RFU, AEBP2 / Fold change vs veh, AEBP2 / RFU, SNHG1 /// SNORD22 /// SNORD25 /// SNORD26 /// SNORD27 /// SNORD28 /// SNORD29 /// SNORD31 / Fold change vs veh, SNHG1 /// SNORD22 /// SNORD25 /// SNORD26 /// SNORD27 /// SNORD28 /// SNORD29 /// SNORD31 / Fold change (Aza/veh), C12orf56 (ProbeSet 11735607_a_at) / Fold change (ACY-1035/veh), C12orf56 (ProbeSet 11735607_a_at) / Fold change (Aza/veh), FGFR1OP (ProbeSet 11751329_s_at) / Fold change (ACY-1035/veh), FGFR1OP (ProbeSet 11751329_s_at) / Fold change (Aza/veh), VPS36 (ProbeSet 11739960_a_at) / Fold change (ACY-1035/veh), VPS36 (ProbeSet 11739960_a_at) / RFU SYPL1 (11715823_x_at) / Fold change /veh SYPL1 (11715823_x_at) / RFU IGFBP7 (11715501_s_at) / Fold change /veh IGFBP7 (11715501_s_at) / RFU REEP3 (11722064_at) / Fold change /veh REEP3 (11722064_at) / RFU IGLL1 (11728026_x_at) / Fold change /veh IGLL1 (11728026_x_at): dose or concentration left out as unconfirmed
Details: MV-4-11 cells, 48 hours

`Nc1ccc(-c2cccs2)cc1NC(=O)c1ccc2c(c1)cc(C1CC1)n2CCN1CCOCC1` [ACY-1035] was tested, and the “Fold change /veh TMPRSS4 (11748680_a_at)” value was 1.05.
